# According to patent US20020058299A1, “Mycologic genera specific selective agar and method of manufacture” (priority 2000, published 2002):
# Test system: aggressive fungi
# Assay: Empirical trials of Minimum Inhibitory Concentration levels that suppress aggressive fungi without restricting Stachybotrys
# Format: cell-based
# Settings: added to PDA base media
# Description: In order to be successful in culturing Stachybotrys from environmental samples, Aspergillus flavus, Aspergillus fumigatus, Aspergillus vervicolor, Cladosporium species, Penicillium species, in addition to other fungi and bacteria, need to be suppressed. While conceptually simple, the difficulty is to determine which base media, in combination with which one or more antibiotics, at what concentrations, incubated at what temperature regimes, for how long, would achieve inhibition of competitors—without restricting Stachybotrys. Extensive experimental trials empirically determined the Minimum Inhibitory Concentration (MIC) levels of various compounds that would effectively suppress aggressive fungi without restricting Stachybotrys development. Through this empirical effort there has been developed a proprietary formula for a selective agar (PDA+) based on commercially available base media and additional ingredients for the specific recovery of Stachybotrys chartarum.
# (2) Miconazole (antifungal compound added to base media at 1.6 micrograms (μg) per milliliter (ml) of PDA+, the optimum concentration within the functional range of 1.0 to 3.2 μg/ml).
smiles,measurement,value
Clc1ccc(COC(Cn2ccnc2)c2ccc(Cl)cc2Cl)c(Cl)c1 (stereo not shown) [Miconazole],optimum concentration in PDA+,1.6 micrograms (μg) per milliliter (ml)
